Data published in patent US9596857B2, “Insecticidal and miticidal mixtures of bifenthrin and cyano-pyrethroids” (FMC Corporation, priority 2005, dated 2017).

Tests used:
Type in all cases: in vivo
[1] = test system: corn earworm (Helicoverpa zea [Boddie]); test: Cotton leaf-disc dip test against corn earworm; conditions: technical, 96 h
Protocol: (§1) Candidate insecticide compositions were evaluated for activity in foliar evaluations against tobacco budworm (Heliothis virescens [Fabricius]), Colorado potato beetle (Leptinotarsa decemlineata [Say]), corn earworm (Helicoverpa zea [Boddie]), cotton aphid (Aphis gossypii [Glover]) and twospotted spider mite (Tetranychus urticae [Koch]). Each test included controls in which the formulation or test solution minus the active ingredients were applied.
In tests against corn earworm, one inch diameter leaf discs cut from cotton plant leaves (Gossypium hirsutum) were dipped into the test solutions of the test formulations to provide application rates as high as 1000 ppm of the active ingredients. The test formulations were dissolved in distilled water containing 10% acetone and 0.25% of a non-ionic detergent [an octylphenolpoly(ethyleneglycolether)x, available from Roche Applied Science as Triton X-100] to the proper concentrations. Cotton wicks, 0.5 inch diameter by 2 inches long, were soaked with distilled water and placed into the wells of a 32 well rearing tray (available as Rearing Tray Bio-Fit 32, from C-D International, Pittman, N.J.), one wick per well. Treated leaf discs were placed on top of the cotton wicks, one leaf disc per wick, and the rearing tray was transferred to a hood where they were kept until the leaf discs had dried. Each disc was infested with 1 late second to early third instar corn earworm, replicated sixteen times per rate of application, and a lid was placed on the rearing tray. The rearing trays were held in a growth chamber for 96 hours at 25° C., 50% relative humidity and a photoperiod of 12 hours light/12 hours dark. For tests in which the active ingredients were not formulated, i.e. the technical active ingredient was used; a stock solution of the test compound was made. For example, a 100 ppm stock solution may be made by dissolving 4 milligrams of the test compound in 4 mL of acetone and adding the solution to 36 mL of an aqueous Triton X-100 solution (one drop of Triton X-100 dissolved in 100 mL of distilled water). Further dilutions can be made by adding distilled water containing 10% acetone and 0.25% of Triton X-100.
(§2) At the end of the 96 hour exposure period, the rearing tray was opened, and the numbers of dead and live insects were counted. […] Using the insect counts, the activity of the test chemical was expressed in percent control. Percent control is derived from the total number of dead insects (TD) compared to the total number of insects (TI) in the test: […]

[2] = test system: cotton aphid (Aphis gossypii [Glover]); test: Foliar leaf-dip test against cotton aphid on tomato plants; conditions: technical, 72 h
Protocol: as §1
In tests against cotton aphid, the leaves of 6 to 8 inch tall tomato plants (Lycopersicon lycoper) were infested with about 50 cotton aphids by placing leaf cuttings from a cotton aphid colony host tomato plant. After about 12 hours the newly infested tomato leaves were dipped into the test solutions of the test formulations to provide application rates as high as 1000 ppm of the active ingredients. The test formulations were dissolved in, and diluted as necessary, with distilled water containing 10% acetone and 0.25% of a non-ionic detergent [an octylphenolpoly(ethyleneglycolether)x, available from Roche Applied Science as Triton X-1001 to the proper concentrations. After treatment, a square of parafilm was placed around the stem of each test plant, covering the soil of each pot in order to catch dead aphids that fall from the leaves. The treated plants were transferred to a hood where they were kept until the leaves had dried. Once dry, the potted plants were placed into a tray containing at least one inch of water. The plants were spaced far enough apart to prevent the aphids from moving between plants. The trays were held in a growth chamber for 72 hours at 25° C., 50% relative humidity and a photoperiod of 14 hours light/10 hours dark. For tests in which the active ingredients were not formulated, i.e. the technical active ingredient was used; a stock solution of the test compound was made. For example, a 100 ppm stock solution may be made by dissolving 4 milligrams of the test compound in 4 mL of acetone and adding the solution to 36 mL of an aqueous Triton X-100 solution (one drop of Triton X-100 dissolved in 100 mL of distilled water). Further dilutions can be made by adding distilled water containing 10% acetone and 0.25% of Triton X-100.
At the end of the 72 hour exposure period the numbers of dead and live insects were counted. Insects were classified as “dead” if they were off-color or brown and desiccated. Using the insect counts, the activity of the test chemical was expressed in percent control. Percent control is derived from the total number of dead insects (TD) compared to the total number of insects (TI) in the test: […]

[3] = test system: Colorado potato beetle (Leptinotarsa decemlineata [Say]); test: Foliar leaf-dip test against adult Colorado potato beetle on tomato plants; conditions: technical, 72 h
Protocol: as §1
In tests against adult Colorado potato beetle, the leaves of 6-8 inch tall tomato plants (Lycopersicon lycoper) were dipped into the test solutions of the test formulations to provide application rates as high as 1000 ppm of the active ingredients. The test formulations were dissolved in distilled water containing 10% acetone and 0.25% of a non-ionic detergent [an octylphenolpoly(ethyleneglycolether)x, available from Roche Applied Science as Triton X-100] to the proper concentrations. The treated plants were transferred to a hood where they were kept until the leaves had dried. For tests in which the active ingredients were not formulated, i.e. the technical active ingredient was used; a stock solution of the test compound was made. For example, a 100 ppm stock solution may be made by dissolving 4 milligrams of the test compound in 4 mL of acetone and adding the solution to 36 mL of an aqueous Triton X-100 solution (one drop of Triton X-100 dissolved in 100 mL of distilled water). Further dilutions can be made by adding distilled water containing 10% acetone and 0.25% of Triton X-100.
The treated tomato plants were removed from their pots by cutting the stems just above the soil line. Each excised plant was placed into an individual 8-ounce paper cup. Ten adult Colorado potato beetles were placed into each paper cup, taking care not to cause injury. An opaque plastic lid was placed on each cup, for a 72 hour exposure period and held at 25° C., 50% relative humidity with a photo-period of 12 hours light and 12 hours dark. At the end of the 72 hour exposure period, the cups were opened, and the numbers of dead and live insects were counted. Using the insect counts, the activity of the test chemical was expressed in percent control. Percent control is derived from the total number of dead insects (TD) compared to the total number of insects (TI) in the test: […]

[4] = test system: twospotted spider mite (Tetranychus urticae [Koch]); test: Foliar leaf-dip test against twospotted spider mite on pinto bean plants; conditions: technical, 96 h
Protocol: as §1
In tests against twospotted spider mites, the leaves of potted 3 to 4 inch tall pinto bean plants (Phaseolus vulgaris) were infested with about 50 to 75 adult twospotted spider mites by placing leaf cuttings from a twospotted spider mite colony host pinto bean plant on the upper surface of the test plant leaves. After about 1 hour the newly infested pinto bean leaves were dipped into the test solutions of the test formulations to provide application rates as high as 1000 ppm of the active ingredients. The test formulations were dissolved in, and diluted as necessary, with distilled water containing 10% acetone and 0.25% of a non-ionic detergent [an octylphenolpoly(ethyleneglycolether)x, available from Roche Applied Science as Triton X-100] to the proper concentrations. The treated plants were transferred to a hood where they were kept until the leaves had dried. Once dry, the potted plants were placed into a tray containing at least one inch of water. The plants were spaced far enough apart to prevent the mites from moving between plants. The trays were held in a growth chamber for 96 hours at 25° C., 50% relative humidity and a photoperiod of 14 hours light/10 hours dark. For tests in which the active ingredients were not formulated, i.e. the technical active ingredient was used; a stock solution of the test compound was made. For example, a 100 ppm stock solution may be made by dissolving 4 milligrams of the test compound in 4 mL of acetone and adding the solution to 36 mL of an aqueous Triton X-100 solution (one drop of Triton X-100 dissolved in 100 mL of distilled water). Further dilutions can be made by adding distilled water containing 10% acetone and 0.25% of Triton X-100.
as §2, with “period” for “period, the rearing tray was opened, and”

[5] = cyano-pyrethroid 0.3 ppm alone (bifenthrin 0.0 ppm)
[6] = cyano-pyrethroid 1.0 ppm alone (bifenthrin 0.0 ppm)
[7] = cyano-pyrethroid 3.0 ppm alone (bifenthrin 0.0 ppm)
[8] = cyano-pyrethroid 10.0 ppm alone (bifenthrin 0.0 ppm)
[9] = cyano-pyrethroid 30.0 ppm alone (bifenthrin 0 ppm)
[10] = cyano-pyrethroid 100.0 ppm alone (bifenthrin 0 ppm)
[11] = cyano-pyrethroid 200.0 ppm alone (bifenthrin 0 ppm)
[12] = cyano-pyrethroid 0.3 ppm alone (bifenthrin 0 ppm)
[13] = cyano-pyrethroid 1.0 ppm alone (bifenthrin 0 ppm)
[14] = cyano-pyrethroid 3.0 ppm alone (bifenthrin 0 ppm)
[15] = cyano-pyrethroid 10.0 ppm alone (bifenthrin 0 ppm)

| Structure (SMILES) | % Mortality Corn Earworm [1, 5] | % Mortality Corn Earworm [1, 6] | % Mortality Corn Earworm [1, 7] | % Mortality Corn Earworm [1, 8] | % Mortality Cotton Aphid [2, 9] | % Mortality Cotton Aphid [2, 10] | % Mortality Cotton Aphid [2, 11] | % Mortality Adult Colorado Potato Beetle [3, 12] | % Mortality Adult Colorado Potato Beetle [3, 13] | % Mortality Adult Colorado Potato Beetle [3, 14] | % Mortality Adult Colorado Potato Beetle [3, 15] | % Mortality Twospotted Spider Mite [4, 15] | % Mortality Twospotted Spider Mite [4, 9] | % Mortality Twospotted Spider Mite [4, 10] | % Mortality Twospotted Spider Mite [4, 11] |
| --- | --- | --- | --- | --- | --- | --- | --- | --- | --- | --- | --- | --- | --- | --- | --- |
| CC1(C)[C@H](C(=O)O[C@H](C#N)c2cccc(Oc3ccccc3)c2)[C@@H]1C=C(Br)Br [delta-methrin, (S)-α-cyano-3-phenoxybenzyl (1R)-cis-3-(2,2-dibromovinyl)-2,2-dimethylcyclopropanecarboxylate] | 6% | 50% | 94% | 100% | 7% | 8% | 19% | 0% | 30% | 90% | 100% | 3% | 83% | 26% | 16% |
| CC(C)[C@H](C(=O)O[C@H](C#N)c1cccc(Oc2ccccc2)c1)c1ccc(Cl)cc1 [esfenvalerate, (S)-α-cyano-3-phenoxybenzyl (S)-2-(4-chlorophenyl)-3-methylbutyrate] | 0% | 0% | 13% | 50% | 38% | 14% | 15% | 0% | 0% | 5% | 95% | 21% | 25% | 71% | 91% |
